Series [1] has as its system memory B cells. Kind of series: High-throughput multiplex qPCR of B-cell-related genes. The note with it: 10 μM. In kind it is cell-based, human. Here is the method:
FIGS. 4A-AA are a combination of heatmap plot and graphs showing expression of B-cell-related genes at day 4 and day 7 of the human B cell differentiation in vitro model in the presence of 0 μM and 10 μM of the compound 005 (n=6). Experimental conditions are as described in the FIG. 3. […] FIG. 4B-AA show expression of the selected genes at day 4 related to proliferation (FIG. 4B-D), plasma-cell differentiation (FIG. 4E-I), immunoglobulin isotype switching (FIG. 4J-M), B-cell identity (FIG. 4N-S), and B-cell activation (FIG. 4T-AA).

A further series has as its system HEK293 cells. Kind of series: MTT assay. In kind it is cell-based. Particulars: data not shown. Background: Tetrazolium assays rely on reduction of a dye to a coloured formazan, in cell work by metabolically active cells.
The test system of series [2] is memory B cells. Kind of series: Immunoglobulin isotype production (LEGENDplex 8-plex). In kind it is cell-based, human. The note with it: day 7. Here is the method:
B cells were stimulated to differentiate into plasmablasts using a two-phase cell culture protocol as previously described. Briefly, B cells were seeded at 4×10^5 cells/mL in 24-well plates and activated during 4 days with 50 ng/mL recombinant human soluble CD40L (R&D Systems), 2.5 μg/mL CpG oligodeoxynucleotide (ODN) 2006 (Amidogen or Cayla Invivogen), 2 μg/mL F(ab′)2 fragment goat anti-human IgA+IgG+IgM (H+L) polyclonal Abs (anti-BCR) (Jackson ImmunoResearch Laboratories), and 50 U/mL human IL-2 (SARL Pharmaxie or Novartis). […] At days 0, 4 and 7, B cells were stained with viability marker LIVE/DEAD Fixable Aqua Dead Cell Stain (Thermofisher) to identify dead cells, followed by extracellular staining with anti-human mAbs: anti-CD20 FITC, anti-IgD BUV395, anti-CD27 BUV737, anti-CD38 BV605 (all from BD Biosciences) and analyzed by flow cytometry (FACSCelesta™, BD Biosciences). In some experiments, B cell apoptosis was evaluated by intracellular active caspase-3 staining (Caspase-3-PE, BD Biosciences).
Immunoglobulin isotypes were quantified using the Human Immunoglobulin Isotyping LEGENDplex 8-plex kit (BioLegend) according to the manufacturer's instructions. Data were collected on the BD FACSCanto™ II flow cytometer and analyzed using LEGENDplex Data Analysis Software.

A further series has as its system NIH3T3 cells. In words: MTT assay. In kind it is cell-based. The note with it: data not shown.
The target in series [3] is T1, ternary BOB1/POU1/PORE complex (Homo sapiens, UniProt P14859).
T1 construct: made in house; host or cells: E. coli BL21
T1 sequence (P14859 280-438): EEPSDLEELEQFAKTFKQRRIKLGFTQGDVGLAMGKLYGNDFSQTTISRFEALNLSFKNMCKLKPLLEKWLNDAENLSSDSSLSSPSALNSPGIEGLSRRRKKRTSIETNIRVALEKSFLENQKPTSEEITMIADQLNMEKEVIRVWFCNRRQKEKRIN
In words: Electrophoretic mobility shift assay (EMSA). Particulars: 100 μM. In kind it is binding. (A gel shift assay detects complexes by their altered migration in electrophoresis.)

Another series deals with PBMCs. In words: T cell recall assay (qPCR and intracellular staining). In kind it is cell-based, human. Here is the method:
Total PBMCs were plated into 96-well round-bottom plates at 0.5×10^6 cells/well and were stimulated with anti-CD3/CD28 Dynabeads (Gibco Life Technologies) at a bead/cell ratio of 0.2:1 in the presence of compound 005 (10 μM) or vehicle (DMSO) for 6 hours to induce polyclonal primary responses. To induce recall responses, cells were stimulated with beads for two days, allowed to rest for eight days in medium supplemented with IL-2 (10 U/mL) and re-stimulated with anti-CD3/CD28 beads for the last 6 hours in the presence of compound 005 ([…]) or vehicle. Expression of Th1-, Th2-, Th17-, and Treg-associated cytokines and transcription factors was assessed by qPCR. For intracellular staining, cells were re-stimulated for 10 hours with anti-CD3/CD28 beads, and Brefeldin A (10 μg/mL, Sigma) was added to the medium 4 hours after the start of re-stimulation. Dead cells were excluded using the LIVE/DEAD® Fixable Aqua Dead Cell Stain Kit (Life Technologies). Subsequently, cells were surface-stained with CD3-BUV395, CD4-BUV737, CD8-Violet650 (all three from BDHorizon), and CD161-PE-Cy7 (from Biolegend) at 4° C. for 30 min, followed by incubation with Fixation/Permeabilization working solution (eBioscience), washed with Permeabilization Buffer and stained with IL-17A-PE and IFNγ-BV711 (both from BD Biosciences). Cells were resuspended in ice-cold FACS buffer (0.5% BSA, 2 mM EDTA and 50 U/mL penicillin/streptomycin in PBS). Flow cytometry data were collected on BD FACSCelesta™ and analyzed using FlowJo™ cell analysis software (FlowJo, LLC).
Total RNA was extracted from PBMCs using the RNeasy Micro Kit (Qiagen) according to the manufacturer's protocol. RNA was processed for cDNA synthesis (Fermentas) and analyzed by qPCR with TaqMan gene expression assays for IFNG (Hs00989291_m1), IL-2 (Hs00174114_m1), TNF (Hs00174128_m1), TBX21 (Hs00203436_m1), IL-4 (Hs00174122_m1), GATA3 (Hs00231122_m1), IL-17A (Hs00174383_m1), IL-17F (Hs00369400_m1), IL-21 (Hs00222327_m1), IL-22 (Hs01574154_m1), RORC (Hs01076122_m1), IL-10 (Hs00961622_m1), FOXP3 (Hs01085834_m1), POU2AF1 (Hs01573371_m1) (Thermofisher) using Real-Time PCR QuantStudio3 PCR System (Applied Biosystems). Expressions of all genes were normalized to the expression of GAPDH (4310884E) as housekeeping gene and presented as fold change relative to the reference sample.
(In qPCR the cycle at which signal appears reflects the starting amount.)

Consider `Cc1ccc(NC(=O)C2CN(c3nc(NCCCc4ccc(F)cc4)nc(NCCC(=O)O)n3)c3ccccc3O2)cc1Cl` (stereo not drawn) [compound 005, 3-((4-(2-((3-chloro-4-methylphenyl)carbamoyl)-2,3-dihydro-4H-benzo[b][1,4]oxazin-4-yl)-6-((3-(4-fluorophenyl)propyl)amino)-1,3,5-triazin-2-yl)amino)propanoic acid], for which, in the series on memory B cells [1], the “expression of genes related to the B cell identity and activation” value was “upregulated”; the “expression of plasma cell related genes” value is “suppressed”. In the series with HEK293 cells (concentrations up to 40 μM), the “toxicity for HEK293 cells” value was “non-toxic or mildly toxic”. Further, the “concentration from which inhibitory effect is observed in MTT assay” value with HEK293 cells is not below 10 µM. In addition, the “IgG1, IgG2, IgG3 and IgG4 production” value in the series with memory B cells [2] (10 μM) was “significant decrease”. Moreover, the “titers of all immunoglobulin subclasses” value with memory B cells [2] (15 and 20 μM) is listed as “strongly suppressed”. For the same molecule, the concentration showing toxicity in the series with NIH3T3 cells was not below 80 µM. Also, in series [3], the “effect on ternary BOB1/POU1/PORE complex” value is reported as “has not affected”. The TNF expression result in the series with PBMCs (initial activation, 6 hours-stimulated cells, 10 μM, data not shown) was “significant decrease”. For the same molecule, in the series on PBMCs (re-stimulated (recall) cells), the “IL-17A mRNA, median percentage decrease” value turned out to be 43% and the “IL-17F mRNA, median percentage decrease” value was 27%. Besides, the “expression of IL-17A by CD4+ T cells (protein, intracellular staining)” value with PBMCs (re-stimulated cells) was “suppressed”.

These data come from patent US20250177412A1, “SMALL-MOLECULE INHIBITORS TARGETING THE BOB1/OCT1 INTERFACE” (NANTES UNIVERSITE, priority 2022, published 2025).
